Tests used:
[1] = tested on: Adult women of all ages with a score lower than four points for all five domains; experiment: Women responding by FSFI: score equal to or higher than four points for all five domains after four weeks (Examples 3, 5, 6); type: in vivo, human; settings: daily supply, four weeks treatment
Source text: Women's sexual function is scored using the established “Female Sexual Function Index” (FSFI) questionnaire [Rosen et al., 2000]. The questionnaire allows to score prevalence of six subcategories (domains) related to female sexual function, with minimum and maximum scores given:
Adult women of all ages were investigated who presented with a score lower than four points out of maximum six points for all five domains.
The investigation depicts the number of responders to the intervention as detailed in the tables after four weeks treatment with a score equal to or higher than four points for all five domains.

postmenopausal women [2] = settings: taken together with supplemental hormones, cited from earlier work
postmenopausal women [3] = settings: cited from earlier work

Row | Compound | Responders (women responding with improvement / n) [1] | women who reported improved genital sensations (postmenopausal women [2]; 202 postmenopausal women, placebo group 43 percent) [%] | group members who reported greater satisfaction with sex (postmenopausal women [2]; placebo group 27 percent) | treatment of SD (postmenopausal women [3])
1 | N=C(N)NCCC[C@H](N)C(=O)O [2.8 g L-arginine, L-arginine] | 5/26 |  |  | 
2 | CCCc1nn(C)c2c(=O)[nH]c(-c3cc(S(=O)(=O)N4CCN(C)CC4)ccc3OCC)nc12 [sildenafil] |  | 57 | Forty-one | not effective
